Laboratory results published in patent US8088806B2 (Achillion Pharmaceuticals, Inc., priority 2005, dated 2012).

system: HCV replicon; test: Replicon based assay of HCV replication inhibition (NPT ELISA); format: cell-based, Hepatitis C virus; details: Hepatitis C virus, Huh-7, 72 h, Table I; Huh-7 HCV replicon-containing cells, three days; read-out: Activity
Experimental: Compounds claimed herein are tested for the ability to inhibit viral replication of the Hepatitis C replicon in cultured cells in which the HCV replicon construct has been incorporated. The HCV replicon system was described by Bartenschlager, et. al (Science, 285, pp. 110-113 (1999)). The replicon system is predictive of in vivo anti-HCV activity; compounds that are active in humans uniformly evidence activity in the replicon assay.
In this assay HCV replicon containing cells are treated with different concentrations of the test compound to ascertain the ability of the test compound to suppress replication of the HCV replicon. As a positive control, HCV replicon-containing cells are treated with different concentrations of interferon alpha, a known inhibitor of HCV replication. The replicon assay system includes Neomycin Phosphotransferase (NPT) as a component of the replicon itself in order to detect the transcription of replicon gene products in the host cell. Cells in which the HCV replicon is actively replicating have high levels of NPT; the level of NPT is proportional to HCV replication. […] The NPT level of each sample is measured using a captured ELISA.
A protocol for testing compounds for the ability to inhibit viral replication of the Hepatitis C replicon cultured cells in which the replicon construct has been incorporated, follows.
The HCV replicon contains, 5′-3′, the HCV-IRES, the neomycin phosphotransferase (neo) gene, the IRES of encephalomyocarditis virus, which directs translation of HCV sequences NS3 to NS5B, and the 3′-NTR. The sequence of the HCV replicon has been deposited in GenBank (Accession no. AJ242652).
The replicon is transfected into Huh-7 cells using standard methods such as electroporation.
The equipment and materials include, but are not limited to, Huh-7 HCV replicon-containing cells, maintenance media (DMEM (Dulbecco's modified Eagle media) supplemented with 10% FBS, L-glutamine, non-essential amino acids, penicillin (100 units/ml), streptomycin (100 micrograms/ml), and 500 micrograms/ml of Geneticin (G418), screening media (DMEM supplemented with 10% FBS, L-glutamine, non-essential amino acids, penicillin (100 units/ml) and streptomycin (100 micrograms/ml)), 96 well tissue culture plates (flat bottom), 96 well plates (U bottom for drug dilution), Interferon alpha for positive control, fixation reagent (such as methanol: acetone), primary antibody (rabbit anti-NPTII), secondary antibody: Eu-N1l, and enhancement solution.
The cells are then seeded onto 96-well plates at a density of 6000-7500 cells/100 microliters/well (6-7.5×10^5 cells/10 ml/plate). The plates are then incubated at 37° C. in a 5% CO2 incubator.
HCV replicon-containing cells are rinsed with once PBS once; 2 mls of trypsin are then added. Cells are incubated at 37° C. in a 5% CO2 incubator for 3-5 minutes. 10 mls of complete medium is added to stop the reaction. Cells are blown gently, put into a 15 ml tube, and spun at 1200 rpm for four minutes. The trypsin/medium solution is removed and 5 mls of medium (500 ml DMEM (high glucose)) from BRL catalog #12430-054; 50 mls 10% FBS, 5% Geneticin G418 (50 mg/ml, BRL catalog #10131-035), 5 ml MEM non-essential amino acids (100×BRL #11140-050) and 5 ml pen-strep (BRL # 15140-148) is added. The cells and media are mixed carefully
Cells are plated with screening medium (500 ml DMEM (BRL #21063-029), 50 ml FBS (BRL #10082-147) and 5 ml MEM non-essential amino acid (BRL #11140-050) at 6000-7500 cells/100 μl/well of 96 well plate (6-7.5×10^5 cells/10 ml/plate). Plates are placed into 37° C. 5% CO2 incubator overnight.
The following morning, drugs (test compounds or interferon alpha) are diluted in 96 well U bottom plates with media or DMSO/media, depending on the final concentration chosen for screening. Generally for 6 concentrations of each test compounds ranging from 10 micromolar to 0.03 micromolar are applied. […]

| SMILES | EC50 |
| --- | --- |
| N#CCc1ccc(Nc2nc(-c3cccnc3)cs2)cc1 [compound 98, 2-(4-(4-(pyridin-3-yl)thiazol-2-ylamino)phenyl)acetonitrile] | > 10 µM |
| c1ccc(CCOc2cccc(Nc3nc(-c4cccnc4)cs3)c2)cc1 [compound 89] | < 1 µM |
| CCCCCCOc1ccc(Nc2nc(-c3cccnc3)cs2)cc1 [compound 90, N-(4-(hexyloxy)phenyl)-4-(pyridin-3-yl)thiazol-2-amine] | < 1 µM |
| CCCCCc1ccc(Nc2nc(-c3cc(-c4ccc(Cl)c(Cl)c4)no3)cs2)cc1 [compound 184, 4-(3-(3,4-dichlorophenyl)isoxazol-5-yl)-N-(4-pentylphenyl)thiazol-2-amine] | > 10 µM |
| CCCCOc1ccc(CNc2nc(-c3cccnc3)cs2)cc1 [compound 81, N-(4-butoxybenzyl)-4-(pyridin-3-yl)thiazol-2-amine] | > 10 µM |
| COc1ccc(OC)c(Nc2nc(-c3c(C)nc4sccn34)cs2)c1 [compound 164, N-(2,5-dimethoxyphenyl)-4-(6-methylimidazo[2,1-b]thiazol-5-yl)thiazol-2-amine] | > 10 µM |
| CCCCCOc1ccc(Nc2nc(-c3ccccc3Cl)cs2)cn1 [compound 181, N-(4-(2-chlorophenyl)thiazol-2-yl)-6-(pentyloxy)pyridin-3-amine] | < 1 µM |
| c1cc(Nc2nc(-c3cccnc3)cs2)cc(OC2Cc3ccccc3C2)c1 [compound 70, N-(3-(2,3-dihydro-1H-inden-2-yloxy)phenyl)-4-(pyridin-3-yl)thiazol-2-amine] | < 1 µM |
| Clc1ccc(-c2cc(-c3csc(Nc4cccc(OCc5ccccc5)c4)n3)on2)cc1Cl [compound 194, N-(3-(benzyloxy)phenyl)-4-(3-(3,4-dichlorophenyl)isoxazol-5-yl)thiazol-2-amine] | > 10 µM |

same assay, conditions: Hepatitis C virus, Huh-7, 72 h, Table III; Huh-7 HCV replicon-containing cells, three days; read-out: Activity

| SMILES | EC50 |
| --- | --- |
| CCCCCCCCc1ccc(Nc2nc(-c3ccc(-c4ccccn4)s3)cs2)cc1 [compound 552, N-(4-octylphenyl)-4-(5-(pyridin-2-yl)thiophen-2-yl)thiazol-2-amine] | < 1 µM |
| CCCCCCCCOc1ccc(Nc2nc(-c3ccc(-n4ccnc4)cc3)cs2)cc1C(F)(F)F [compound 661, 4-(4-(1H-imidazol-1-yl)phenyl)-N-(3-(trifluoromethyl)-4-(octyloxy)phenyl)thiazol-2-amine] | < 1 µM |
| CCCCCOc1ccc(Nc2nc(Cc3ccc(Cl)cc3)cs2)cc1F [compound 636, 4-(4-chlorobenzyl)-N-(3-fluoro-4-(pentyloxy)phenyl)thiazol-2-amine] | > 10 µM |
| CCCCCCCCOc1ccc(Nc2nc(-c3cncnc3-c3ccccc3)cs2)cc1C(F)(F)F [compound 702, N-(3-(trifluoromethyl)-4-(octyloxy)phenyl)-4-(4-phenylpyrimidin-5-yl)thiazol-2-amine] | < 1 µM |
| O=C1OCc2cc(-c3csc(Nc4ccc(OCC5CCCCC5)c(F)c4)n3)ccc21 [compound 718, 5-(2-(4-(cyclohexylmethoxy)-3-fluorophenylamino)thiazol-4-yl)isobenzofuran-1(3H)-one] | 1 to 10 µM |
| Fc1cc(Nc2nc(-c3ccc(-n4ccnc4)cc3)cs2)ccc1OCC1CCCCC1 [compound 719, 4-(4-(1H-imidazol-1-yl)phenyl)-N-(4-(cyclohexylmethoxy)-3-fluorophenyl)thiazol-2-amine] | < 1 µM |

same assay, conditions: Hepatitis C virus, replicon based assay of HCV replication inhibition; Table II; read-out: Activity

| SMILES | EC50 |
| --- | --- |
| CCCCCOc1ccc(Nc2nc(-c3cc4cnccc4o3)cs2)cc1C(F)(F)F [compound 361, 4-(furo[3,2-c]pyridin-2-yl)-N-(4-(pentyloxy)-3-(trifluoromethyl)phenyl)thia-zol-2-amine] | < 1 µM |
| CCCCCOc1ccc(Nc2nc(CC)cs2)cc1F [compound 427, 4-ethyl-N-(3-fluoro-4-(pentyloxy)phenyl)thiazol-2-amine] | 1 to 10 µM |
| CCCCCCCCOc1ccc(Nc2nc(C3=NC(=O)NC3)cs2)cc1 [compound 331, 4-(2-(4-(octyloxy)phenylamino)thia-zol-4-yl)-1H-imidazol-2(5H)-one] | 1 to 10 µM |
| CCCCCCCCN(C)c1ccc(Nc2nc(Cc3cccc(F)c3)cs2)cc1 [compound 499, N^1-(4-(3-fluorobenzyl)thiazol-2-yl)-N^4-methyl-N^4-octylbenzene-1,4-diamine] | 1 to 10 µM |
| N#Cc1ccc(-c2csc(Nc3ccc(OCC4CCCCC4)c(F)c3)n2)cn1 [compound 511, 5-(2-(4-(cyclohexylmethoxy)-3-fluorophenylamino)thiazol-4-yl)pyridine-2-carbonitrile] | > 10 µM |
| CCCCCOc1ccc(Nc2nc(C(=O)Nc3ccc(C(F)(F)F)nc3)cs2)cc1C(F)(F)F [compound 233, 2-(4-(pentyloxy)-3-(trifluoromethyl)phenyl-amino)-N-(6-(trifluoromethyl)pyridin-3-yl)thiazole-4-carboxamide] | > 10 µM |
| CCCCCOc1ccc(Nc2nc(-c3cccc(O)c3)cs2)cc1C(F)(F)F [compound 434, 3-(2-(3-(trifluoromethyl)-4-(pentyloxy)phenylmino)thia-zol-4-yl)phenol] | 1 to 10 µM |

same assay, conditions: Hepatitis C virus, replicon based assay of HCV replication inhibition; Table IV; read-out: Activity

| SMILES | EC50 |
| --- | --- |
| O=c1[nH]c2ccc(-c3csc(Nc4ccc(OCC5CCCCC5)c(F)c4)n3)cc2c(=O)o1 [compound 723, 6-(2-(4-(cyclohexylmethoxy)-3-fluorophenylamino)thiazol-4-yl)-1H-benzo[d][1,3]oxazine-2,4-dione] | 1 to 10 µM |
| Fc1ccc(Cn2ccc3ccc(Nc4nc(-c5ccc(F)cc5)cs4)cc32)cc1 [compound 868, 1-(4-fluorobenzyl)-N-(4-(4-fluorophenyl)thiazol-2-yl)-1H-indol-6-amine] | < 1 µM |
| CC(C)c1ccc(Nc2nc(-c3cccnc3)cs2)cc1 [compound 887, N-(4-isopropylphenyl)-4-(pyridin-3-yl)thiazol-2-amine] | 1 to 10 µM |
| CC(C)(C)c1csc(Nc2nc(-c3cccnc3)cs2)n1 [compound 797, 4-tert-butyl-N-(4-(pyridin-3-yl)thiazol-2-yl)thiazol-2-amine] | > 10 µM |
| CCCCCCCCOc1ccc(Nc2nc(-c3csc(N)n3)cs2)cc1C(F)(F)F [compound 916, 4-(2-(3-(trifluoromethyl)-4-(octyloxy)phenylamino)thiazol-4-yl)thiazol-2-amine] | < 1 µM |
| COc1ncc(-c2csc(Nc3ccc(OCC4CCCCC4)c(F)c3)n2)cn1 [compound 720, N-(4-(cyclohexylmethoxy)-3-fluorophenyl)-4-(2-methoxypyrimidin-5-yl)thiazol-2-amine] | < 1 µM |
| COc1ccc(Nc2nc(-c3cccnc3)cs2)cc1S(=O)(=O)Nc1ccc(Cl)cc1 [compound 818] | > 10 µM |
| c1ccc(-c2nc3cc(Nc4nc(-c5cccnc5)cs4)ccc3o2)cc1 [compound 736, 2-phenyl-N-(4-(pyridin-3-yl)thiazol-2-yl)benzo[d]oxazol-5-amine] | < 1 µM |
| Cc1cc(C)c(Nc2nc(-c3cccnc3)cs2)c(C)c1 [compound 883, N-mesityl-4-(pyridin-3-yl)thiazol-2-amine] | > 10 µM |
| CCCCCCCCOc1ccc(Nc2nc(-c3cccn3C)cs2)cc1C(F)(F)F [compound 783, N-(3-(trifluoromethyl)-4-(octyloxy)phenyl)-4-(1-methyl-1H-pyrrol-2-yl)thiazol-2-amine] | < 1 µM |
| CCCCCCCCOc1ccc(Nc2nc(-c3ncc(C(=O)OCC)s3)cs2)cc1C(F)(F)F [compound 732, ethyl 2-(2-(3-(trifluoromethyl)-4-(octyloxy)phenylamino)thiazol-4-yl)thiazole-5-carboxylate] | < 1 µM |
